Experimental data from PMC6152131, “Pharmacokinetic Study of Biotransformation Products from an Anxiolytic Fraction of Tilia americana” (Molecules : A Journal of Synthetic Chemistry and Natural …, 2017).

Tests used:
[1] = Pharmacokinetic analysis, two-compartment model (PKSolver); format: in vivo, ICR mice
Procedure: The data shown in Table 2 were applied to the program PKSolver. After a single oral administration of 200 mg/kg of the anxiolitic fraction of T. americana, the behavior of the concentration-time data allowed us to determine the main pharmacokinetic parameters under a two-compartment model (Table 3), and the same program provided the graphical behavior of the variables and the adjustment to the two-compartment model.
(§1) To evaluate the suitability of the assay for the pharmacokinetic studies, 200 mg/kg of the active fraction was orally administered to the animals. Ten animals were used in each group at different times (0, 5, 10, 15, 30, 60, 120, 240, 480, 720, and 1440 min). Pharmacokinetic calculations were performed using the observed data. All data was subsequently processed using the PKSolver add-in program for Microsoft Excel written in Visual Basic for Applications. All values obtained were expressed in mean ± standard deviation.
For the pharmacokinetic assay, the selection was made either from a one-compartment or a two-compartment model, with the use of both the Akaike information criterion (AIC) and the Schwarz criterion (SC). Using these two criteria, one can select which model is more suited to being adjusted, to the point where it reaches the lowest values of the AIC or SC criteria, which means that the chosen model is more parsimonious (less parameters required) and best fits the data (low error prediction).

[2] = Plasma concentration after a single oral dose of the anxiolytic fraction (HPLC); format: in vivo, ICR mice; conditions: mouse, plasma, ICR mice, n = 10
Procedure: Eleven groups of ten animals each were randomly formed. All animals were orally administered with 200 mg/kg of the active fraction. Animals were anaesthetized with ether, and blood samples were obtained from the retroorbital sinus with a heparinized capillary, each group was examined at different times (0, 5, 10, 15, 30, 60, 120, 240, 480, 720, and 1440 min) after the active fraction was administered. […] Then the plasma samples were frozen and lyophilized. The dry plasma was subsequently used to extract and measure the concentration of the flavonoids and biotransformation products.
(§2) Plasma dried pulverized samples were extracted with methanol (HPLC grade, Merck). The extracts were filtered with Teflon membrane dimensions 0.45 μm by 13 mm (Millex®-LCR); 20 μL of each filtered sample was injected into the HPLC equipment. The measurements were performed in a (Waters corporation, Milford, CT, USA) 2695 HPLC with a diode array detector (Waters 2996) and processed with the Empower Pro 1.0 software. A Chromolith Performance® RP-18e 100 × 4.6 mm (Merck KGaA, Darmstadt, Germany) was used. The mobile phase consisted of a mixture of acetonitrile and water with the proportion 55:45 and a flow rate of 1 mL/min. The concentrations of the flavonoids and the biotransformation products were obtained by comparison with a pre-built calibration curve at λ = 220 nm.
as §1

[3] = Stability of flavonoids and biotransformation products in mouse plasma under different handling conditions; format: in vitro ADME, mice; conditions: for Accuracy Bias 0 h / Observed Conc. 0 h / Accuracy Bias 8 h / Observed Conc. 8 h / Accuracy Bias 24 h / Observed Conc. 24 h: room temperature (25 °C); for Observed Conc. 0 h / Observed Conc. 8 h / Observed Conc. 24 h / Observed Conc. Autosampler (4 °C; 8 h) / Observed Conc. Long-term (−70 °C; 1 month): n = 6; for Accuracy Bias Autosampler (4 °C; 8 h) / Accuracy Bias Long-term (−70°C; 1 month) / Observed Conc. Autosampler (4 °C; 8 h) / Observed Conc. Long-term (−70 °C; 1 month): storage stability
Procedure: as §2
[…] The investigation enclosed here expected manipulation conditions during all the sample storage and process periods, which included the stability data from the freeze/thaw, bench-top, autosampler, and long–term stability tests.
For all stability studies, fresh QC samples were evaluated by using a freshly prepared standard curve for the measurements. The concentrations obtained from all the stability studies were compared with the fresh QC samples, and the percentage concentration deviation was calculated. The analytes were considered stable in the mouse plasma when the concentration difference between the freshly prepared samples and the stability samples was less than 15%.

[4] = mouse, oral 200 mg/kg anxiolytic fraction, ICR mice plasma, two-compartment model
[5] = oral 200 mg/kg anxiolytic fraction, ICR mice plasma, two-compartment model
[6] = oral 200 mg/kg anxiolytic fraction, ICR mice plasma, two-compartment model, n = 10
[7] = high nominal conc. (7.00; 44.37; 4.50; 31.25 µg/mL)
[8] = low nominal conc. (1.75; 11.02; 1.12; 1.95 µg/mL)
[9] = medium nominal conc. (3.50; 22.18; 2.24; 7.81 µg/mL)

CL/F, times lower than m-HPAA ([1]; after oral administration): 30 times
CL/F, times lower than p-HPAA ([1]; after oral administration): 20 times
AUC(0-inf) [1, 4]: 3850 µg·h/mL
Cmax [1, 4]: 7180 ng/mL
Tmax [1, 4]: 0.215 h
AUC(0-t) ([1]; mouse, oral 200 mg/kg anxiolytic fraction, ICR mice plasma, two-compartment model, read-out: AUC0→1440 (converted)): 146 µg·h/mL
MRT ([1]; mouse, oral 200 mg/kg anxiolytic fraction, ICR mice plasma, two-compartment model, read-out: MRT (mean residence time) (converted)): 625 h
k el ([1]; mouse, oral 200 mg/kg anxiolytic fraction, ICR mice plasma, two-compartment model, read-out: k10 (apparent first-order elimination rate constant from the central compartment) (converted)): 5.3e-07 s⁻¹
half-life ([1]; mouse, oral 200 mg/kg anxiolytic fraction, ICR mice plasma, two-compartment model, read-out: t1/2β): 434 h
CL/F (apparent clearance) [1, 5]: 0.0008 (mg/Kg)/(μg/mL)/min
V/F (apparent volume of distribution) [1, 5]: 27.21 (mg/Kg)/(µg/mL)
k12 (transfer rate constant central to peripheral compartment) [1, 5]: 0.002 min⁻¹
k21 (transfer rate constant peripheral to central compartment) [1, 5]: 0.0096 min⁻¹
ka (apparent first-order absorption rate constant) [1, 5]: 0.43 min⁻¹
t1/2ka (absorption half time) [1, 5]: 1.61 min
t1/2α [1, 5]: 0.9992 h
α [1, 5]: 0.01 min⁻¹
β [1, 5]: 2.66e-05 min⁻¹
A (plasma concentration coefficient, central compartment) [1, 6]: 1.23 µg/mL
B (plasma concentration coefficient, peripheral compartment) [1, 6]: 6.16 µg/mL
index: relation between rate constants of k12 with respect to k21 ([1]; two-compartment model): 0.20
concentration at 5 min ([2]; 5 min after single oral dose of 200 mg/kg of the anxiolytic fraction, ND = not detected): 6600 ± 430 ng/mL
concentration at 10 min ([2]; 10 min after single oral dose of 200 mg/kg of the anxiolytic fraction): 6430 ± 350 ng/mL
concentration at 15 min ([2]; 15 min after single oral dose of 200 mg/kg of the anxiolytic fraction): 7730 ± 610 ng/mL
concentration at 30 min ([2]; 30 min after single oral dose of 200 mg/kg of the anxiolytic fraction): 7170 ± 520 ng/mL
concentration at 60 min ([2]; 60 min after single oral dose of 200 mg/kg of the anxiolytic fraction): 6880 ± 430 ng/mL
concentration at 120 min ([2]; 120 min after single oral dose of 200 mg/kg of the anxiolytic fraction): 6340 ± 410 ng/mL
concentration at 240 min ([2]; 240 min after single oral dose of 200 mg/kg of the anxiolytic fraction): 6260 ± 320 ng/mL
concentration at 480 min ([2]; 480 min after single oral dose of 200 mg/kg of the anxiolytic fraction): 6100 ± 340 ng/mL
concentration at 720 min ([2]; 720 min after single oral dose of 200 mg/kg of the anxiolytic fraction): 6010 ± 540 ng/mL
concentration at 1440 min ([2]; 1440 min after single oral dose of 200 mg/kg of the anxiolytic fraction): 5930 ± 490 ng/mL
Accuracy Bias 0 h ([3]; high nominal conc.): 0.26%
Observed Conc. 0 h ([3]; high nominal conc. (rutin 7.00; quercetin glucoside, quercitrin, tiliroside 44.37; kaempferol 4.50; m-HPAA, p-HPAA, DOPAC 31.25 µg/mL)): 31.61 ± 0.26 µg/mL
Accuracy Bias 0 h ([3]; low nominal conc.): 0.02%
Observed Conc. 0 h ([3]; low nominal conc. (rutin 1.75; quercetin glucoside, quercitrin, tiliroside 11.02; kaempferol 1.12; m-HPAA, p-HPAA, DOPAC 1.95 µg/mL)): 1.98 ± 0.020 µg/mL
Accuracy Bias 0 h ([3]; medium nominal conc.): 0.03%
Observed Conc. 0 h ([3]; medium nominal conc. (rutin 3.50; quercetin glucoside, quercitrin, tiliroside 22.18; kaempferol 2.24; m-HPAA, p-HPAA, DOPAC 7.81 µg/mL)): 7.85 ± 0.032 µg/mL
Accuracy Bias 8 h ([3]; high nominal conc.): 0.25%
Observed Conc. 8 h [3, 7]: 31.64 ± 0.24 µg/mL
Accuracy Bias 8 h ([3]; low nominal conc.): 0.03%
Observed Conc. 8 h [3, 8]: 1.92 ± 0.02 µg/mL
Accuracy Bias 8 h ([3]; medium nominal conc.): 0.03%
Observed Conc. 8 h [3, 9]: 7.86 ± 0.03 µg/mL
Accuracy Bias 24 h ([3]; high nominal conc.): 0.19%
Observed Conc. 24 h [3, 7]: 31.53 ± 0.19 µg/mL
Accuracy Bias 24 h ([3]; low nominal conc.): 0.03%
Observed Conc. 24 h [3, 8]: 1.91 ± 0.03 µg/mL
Accuracy Bias 24 h ([3]; medium nominal conc.): 0.02%
Observed Conc. 24 h [3, 9]: 7.78 ± 0.02 µg/mL
Accuracy Bias Autosampler (4 °C; 8 h) ([3]; high nominal conc.): 2.23%
Accuracy Bias Long-term (−70°C; 1 month) ([3]; high nominal conc.): 2.11%
Observed Conc. Autosampler (4 °C; 8 h) [3, 7]: 31.61 ± 0.19 µg/mL
Observed Conc. Long-term (−70 °C; 1 month) [3, 7]: 31.53 ± 0.25 µg/mL
Accuracy Bias Autosampler (4 °C; 8 h) ([3]; low nominal conc.): 0.88%
Accuracy Bias Long-term (−70°C; 1 month) ([3]; low nominal conc.): 1.15%
Observed Conc. Autosampler (4 °C; 8 h) [3, 8]: 1.91 ± 0.03 µg/mL
Observed Conc. Long-term (−70 °C; 1 month) [3, 8]: 1.99 ± 0.03 µg/mL
Accuracy Bias Autosampler (4 °C; 8 h) ([3]; medium nominal conc.): 0.38%
Accuracy Bias Long-term (−70°C; 1 month) ([3]; medium nominal conc.): 0.58%
Observed Conc. Autosampler (4 °C; 8 h) [3, 9]: 7.78 ± 0.02 µg/mL
Observed Conc. Long-term (−70 °C; 1 month) [3, 9]: 7.85 ± 0.03 µg/mL
Compound: O=C(O)Cc1ccc(O)c(O)c1 [DOPAC, 3,4-dihydroxyphenylacetic acid]
